According to US5217960A, “Erythromycin derivatives” (priority 1991, dated 1993):
In brackets after ≈: the same amount, converted by molar mass. Read-outs that look alike come from different tables or passages of the source.

How the values were obtained:
Type in all cases: cell-based
[1] = test system: KLEBSIELLA PNEUMONIAE ATCC 8045; experiment: In vitro antibacterial activity, agar dilution MIC; conditions: ATCC8045, K. pneumoniae ATCC 8045, BHI agar, 35-37° C., 20 to 24 hours, read-out: MIC
[2] = test system: PSEUDOMONAS AERUGINOSA K799/WT; experiment: In vitro antibacterial activity, agar dilution MIC; conditions: P. aeruginosa K799/WT, BHI agar, 35-37° C., 20 to 24 hours
ESCHERICHIA COLI SS = experiment: In vitro antibacterial activity, agar dilution MIC
ESCHERICHIA COLI JUHL = experiment: microbe, parasite or virus in culture; conditions: E. coli JUHL, BHI agar, 35-37° C., 20 to 24 hours, read-out: MIC
[3] = test system: STAPHYLOCOCCUS EPIDERMIDIS 3519; experiment: microbe, parasite or virus in culture
[4] = test system: STREPTOCOCCUS PYOGENES 930 CONST; experiment: In vitro antibacterial activity, agar dilution MIC
[5] = test system: STAPHYLOCOCCUS AUREUS ATCC 6538P; experiment: In vitro antibacterial activity, agar dilution MIC; conditions: ATCC6538P, 24 h
[6] = test system: ACINETOBACTER CALCOACETICUS CMX 669; experiment: In vitro antibacterial activity, agar dilution MIC; conditions: A. calcoaceticus CMX 669, BHI agar, 35-37° C., 20 to 24 hours
[7] = test system: STAPHYLOCOCCUS AUREUS 642A; experiment: In vitro antibacterial activity, agar dilution MIC; conditions: 24 h
[8] = test system: ENTEROBACTER AEROGENES ATCC 13048; experiment: In vitro antibacterial activity, agar dilution MIC; conditions: Klebsiella aerogenes, ATCC13048; E. aerogenes ATCC 13048; BHI agar, 35-37° C., 20 to 24 hours; read-out: MIC
[9] = test system: PSEUDOMONAS AERUGINOSA A5007; experiment: In vitro antibacterial activity, agar dilution MIC; conditions: P. aeruginosa A5007, BHI agar, 35-37° C., 20 to 24 hours
STR[…] 508 = experiment: In vitro antibacterial activity, agar dilution MIC; conditions: Streptococcus agalactiae, 24 h
Description: (§1) Representative compounds of the present invention were assayed in vitro for antibacterial activity as follows: Twelve petri dishes containing successive aqueous dilutions of the test compound mixed with 10 ml of sterilized Brain Heart Infusion (BHI) agar (Difco 0418-01-5) were prepared. Each plate was inoculated with 1:100 (or 1:10 for slow-growing strains, such as Micrococcus and Streptococcus) dilutions of up to 32 different microorganisms, using a Steers replicator block. The inoculated plates were incubated at 35°-37° C. for 20 to 24 hours. In addition, a control plate, using BHI agar containing no test compound, was prepared and incubated at the beginning and end of each test.
(§2) An additional plate containing a compound having known susceptibility patterns for the organisms being tested and belonging to the same antibiotic class as the test compound was also prepared and incubated as a further control, as well as to provide test-to-test comparability. Erythromycin A was used for this purpose.
(§3) After incubation, each disk was read. The minimum inhibitory concentration (MIC) was defined as the lowest concentration of drug yielding no growth, a slight haze, or sparsely isolated colonies on the inoculum spot as compared to the growth control.

STR[…] EES61 = experiment: In vitro antibacterial activity, agar dilution MIC; conditions: Streptococcus pyogenes, 24 h
Description: as §1, §2, §3

STAPHYLOCOCCUS AUREUS 45 = experiment: In vitro antibacterial activity, agar dilution MIC
[10] = test system: STAPHYLOCOCCUS AUREUS CMX 553; experiment: In vitro antibacterial activity, agar dilution MIC
[11] = test system: STREPTOCOCCUS PYOGENES 2548 INDUC; experiment: In vitro antibacterial activity, agar dilution MIC; conditions: S. pyogenes 2548 INDUC, BHI agar, 35-37° C., 20 to 24 hours, read-out: MIC
ESCHERICHIA COLI H560 = experiment: In vitro antibacterial activity, agar dilution MIC; conditions: E. coli H560, BHI agar, 35-37° C., 20 to 24 hours, read-out: MIC
PSEUDOMONAS CEPACIA 296I = experiment: In vitro antibacterial activity, agar dilution MIC; conditions: Burkholderia cepacia; P. cepacia 296I; BHI agar, 35-37° C., 20 to 24 hours; read-out: MIC
[12] = test system: STAPHYLOCOCCUS AUREUS 1775; experiment: In vitro antibacterial activity, agar dilution MIC; conditions: S. aureus 1775, BHI agar, 35-37° C., 20 to 24 hours, read-out: MIC
ESCHERICHIA COLI KNK 437 = experiment: microbe, parasite or virus in culture; conditions: E. coli KNK 437, BHI agar, 35-37° C., 20 to 24 hours
ESCHERICHIA COLI DC-2 = experiment: In vitro antibacterial activity, agar dilution MIC; conditions: E. coli DC-2, BHI agar, 35-37° C., 20 to 24 hours, read-out: MIC
[13] = test system: STAPHYLOCOCCUS AUREUS A5177; experiment: In vitro antibacterial activity, agar dilution MIC
[14] = test system: STREPTOCOCCUS BOVIS A5169; experiment: In vitro antibacterial activity, agar dilution MIC
[15] = test system: PROVIDENCIA STUARTII CMX 640; experiment: microbe, parasite or virus in culture; conditions: P. stuartii CMX 640, BHI agar, 35-37° C., 20 to 24 hours
[16] = test system: PSEUDOMONAS AERUGINOSA BMH10; experiment: In vitro antibacterial activity, agar dilution MIC; conditions: P. aeruginosa BMH10, BHI agar, 35-37° C., 20 to 24 hours, read-out: MIC
M[…] ATCC 4698 = experiment: In vitro antibacterial activity, agar dilution MIC; conditions: Micrococcus luteus, ATCC4698, 24 h
Description: as §1, §2
as §3, with “control. The results of this assay, shown below in Tables 1 and 2, support the conclusion that the compounds of the invention are effective antibacterial agents.” for “control.”

M[…] ATCC 9341 = experiment: In vitro antibacterial activity, agar dilution MIC; conditions: Micrococcus luteus, ATCC9341, 24 h
Description: as §1, §2
as §3, with “control. The results of this assay, shown below in Tables 1 and 2, support the conclusion that the compounds of the invention are effective antibacterial agents.” for “control.”

[17] = test system: PSEUDOMONAS AERUGINOSA K799/61; experiment: In vitro antibacterial activity, agar dilution MIC
Description: as §1, §2
as §3, with “control. The results of this assay, shown below in Tables 1 and 2, support the conclusion that the compounds of the invention are effective antibacterial agents.” for “control.”

EN[…] ATCC 8043 = experiment: In vitro antibacterial activity, agar dilution MIC; conditions: Enterococcus faecium, ATCC8043, 24 h
Description: as §1, §2
as §3, with “control. The results of this assay, shown below in Tables 1 and 2, support the conclusion that the compounds of the invention are effective antibacterial agents.” for “control.”

[18] = test system: STAPHYLOCOCCUS AUREUS NCTC 10649; experiment: In vitro antibacterial activity, agar dilution MIC

CC[C@H]1OC(=O)[C@H](C)[C@@H](O[C@H]2C[C@@](C)(OC)[C@@H](O)[C@H](C)O2)[C@H](C)[C@@H](O[C@@H]2O[C@H](C)C[C@H](N(C)C)[C@H]2O)[C@](C)(O)C[C@@H](C)[C@@H](N(C)C)[C@H](C)[C@@H](O)[C@@]1(O)CO [Compound 10, (9R)-9-deoxo-9-(N,N-dimethylamino)-21-hydroxyerythromycin A]
MIC [1]: > 100 µg/mL
MIC [2]: > 100 µg/mL
MIC (ESCHERICHIA COLI SS; 24 h): 1.56 µg/mL (≈ 2 µM)
MIC (ESCHERICHIA COLI JUHL): > 100 µg/mL
MIC ([3]; 24 h): 25 µg/mL (≈ 32.1 µM)
MIC ([4]; S. pyogenes 930 CONST, BHI agar, 35-37° C., 20 to 24 hours, read-out: MIC): > 100 µg/mL
MIC [5]: 25 µg/mL (≈ 32.1 µM)
MIC [6]: > 100 µg/mL
MIC [7]: 25 µg/mL (≈ 32.1 µM)
MIC [8]: > 100 µg/mL
MIC [9]: > 100 µg/mL
MIC (STR[…] 508): 3.1 µg/mL (≈ 3.98 µM)
MIC (STR[…] EES61): 1.56 µg/mL (≈ 2 µM)
MIC (STAPHYLOCOCCUS AUREUS 45; 24 h): 25 µg/mL (≈ 32.1 µM)
MIC ([10]; 24 h): 25 µg/mL (≈ 32.1 µM)
MIC [11]: 100 µg/mL (≈ 128 µM)
MIC (ESCHERICHIA COLI H560): 100 µg/mL (≈ 128 µM)
MIC (PSEUDOMONAS CEPACIA 296I): > 100 µg/mL
MIC [12]: > 100 µg/mL
MIC (ESCHERICHIA COLI KNK 437): > 100 µg/mL
MIC (ESCHERICHIA COLI DC-2): > 100 µg/mL
MIC ([13]; 24 h): > 100 µg/mL
MIC ([14]; 24 h): 3.1 µg/mL (≈ 3.98 µM)
MIC [15]: > 100 µg/mL
MIC [16]: > 100 µg/mL
MIC (M[…] ATCC 4698): 3.1 µg/mL (≈ 3.98 µM)
MIC (M[…] ATCC 9341): 6.2 µg/mL (≈ 7.96 µM)
MIC ([17]; P. aeruginosa K799/61, BHI agar, 35-37° C., 20 to 24 hours, read-out: MIC): 50 µg/mL (≈ 64.2 µM)
MIC (EN[…] ATCC 8043): 12.5 µg/mL (≈ 16 µM)
MIC ([18]; NCTC10649, 24 h): 12.5 µg/mL (≈ 16 µM)

CC[C@H]1OC(=O)[C@H](C)[C@@H](O[C@H]2C[C@@](C)(OC)[C@@H](O)[C@H](C)O2)[C@H](C)[C@@H](O[C@@H]2O[C@H](C)C[C@H](N(C)C)[C@H]2O)[C@](C)(O)C[C@@H](C)[C@@H](N)[C@H](C)[C@@H](O)[C@@]1(O)CN [Compound 15, (9R)-9,21-diamino-9-deoxo-erythromycin A]
MIC [1]: > 100 µg/mL
MIC [2]: > 100 µg/mL
MIC (ESCHERICHIA COLI SS; E. coli SS, BHI agar, 35-37° C., 20 to 24 hours, read-out: MIC): > 100 µg/mL
MIC (ESCHERICHIA COLI JUHL): 100 µg/mL (≈ 133 µM)
MIC ([3]; S. epidermidis 3519, BHI agar, 35-37° C., 20 to 24 hours, read-out: MIC): > 100 µg/mL
MIC ([4]; 24 h): 12.5 µg/mL (≈ 16.7 µM)
MIC [5]: 25 µg/mL (≈ 33.3 µM)
MIC [6]: > 100 µg/mL
MIC [7]: 12.5 µg/mL (≈ 16.7 µM)
MIC [8]: > 100 µg/mL
MIC [9]: > 100 µg/mL
MIC (STR[…] 508): 12.5 µg/mL (≈ 16.7 µM)
MIC (STR[…] EES61): 25 µg/mL (≈ 33.3 µM)
MIC (STAPHYLOCOCCUS AUREUS 45; S. aureus 45, BHI agar, 35-37° C., 20 to 24 hours, read-out: MIC): 100 µg/mL (≈ 133 µM)
MIC ([10]; S. aureus CMX 553, BHI agar, 35-37° C., 20 to 24 hours, read-out: MIC): 100 µg/mL (≈ 133 µM)
MIC [11]: > 100 µg/mL
MIC (ESCHERICHIA COLI H560): > 100 µg/mL
MIC (PSEUDOMONAS CEPACIA 296I): 100 µg/mL (≈ 133 µM)
MIC [12]: 100 µg/mL (≈ 133 µM)
MIC (ESCHERICHIA COLI KNK 437): 100 µg/mL (≈ 133 µM)
MIC (ESCHERICHIA COLI DC-2): 3.1 µg/mL (≈ 4.13 µM)
MIC ([13]; S. aureus A5177, BHI agar, 35-37° C., 20 to 24 hours, read-out: MIC): > 100 µg/mL
MIC ([14]; S. bovis A5169, BHI agar, 35-37° C., 20 to 24 hours, read-out: MIC): 100 µg/mL (≈ 133 µM)
MIC [15]: > 100 µg/mL
MIC [16]: > 100 µg/mL
MIC (M[…] ATCC 4698): 12.5 µg/mL (≈ 16.7 µM)
MIC (M[…] ATCC 9341): 50 µg/mL (≈ 66.7 µM)
MIC ([17]; 24 h): > 100 µg/mL
MIC (EN[…] ATCC 8043): 12.5 µg/mL (≈ 16.7 µM)
MIC ([18]; NCTC10649, S. aureus NCTC 10649, BHI agar, 35-37° C., 20 to 24 hours, read-out: MIC): 100 µg/mL (≈ 133 µM)
